Among the data in US20120245137A1 (Zalicus Pharmaceuticals Ltd., priority 2009, published 2012) are IC50 values, retold here.

A value given as a limit tells only on which side of the number the result lay.

What all share (type): cell-based
The target of assay [1] is human α1H T-type channels (Homo sapiens, UniProt O95180). The experiment in a line: T-type calcium channel block, whole cell patch clamp, α1H. Conditions: HEK cells stably expressing human α1H; mainly non-inactivated protocol; values above 10,000 nM represented as 10000. In short, it runs like this:
(§1)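 Read-out: current block in whole-cell patch clamp of HEK 293 cells stably expressing human α1G or α1H subunits. Compounds were perfused locally in external solution (0.1-0.01% DMSO) under resting and inactivating voltage protocols.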
(In general: In patch-clamp work, channel activity is measured electrically.)

The target of assay [2] is human α1G T-type channels (Homo sapiens, UniProt O43497). The experiment in a line: T-type calcium channel block, whole cell patch clamp, α1G. The conditions noted are these: HEK cells stably expressing human α1G; mainly non-inactivated protocol; values above 10,000 nM represented as 10000. The method, boiled down: as §1
Assay [3] has as its target N-type calcium channel subunits (α1B, α2δ, and β3a) (Homo sapiens, UniProt Q00975). The assay can be described thus: Block of Cav2.2 channel, whole cell voltage clamp, manual and PatchXpress. The conditions noted are these: Table 5; table follows Assay Example 3 (whole cell voltage clamp / PatchXpress); assay not given. The method, boiled down:
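Percent block taken as current amplitude ratio with versus without compound, applied in rising doses; IC50 fitted where one cell received multiple doses. Protocol: 50 ms pulses to +20 mV at 0.067 Hz from […] or −90 mV holding; P/n leak subtraction, no junction-potential correction; manual and PatchXpress recordings.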

human α1G T-type channels, sequence (O43497 whole entry): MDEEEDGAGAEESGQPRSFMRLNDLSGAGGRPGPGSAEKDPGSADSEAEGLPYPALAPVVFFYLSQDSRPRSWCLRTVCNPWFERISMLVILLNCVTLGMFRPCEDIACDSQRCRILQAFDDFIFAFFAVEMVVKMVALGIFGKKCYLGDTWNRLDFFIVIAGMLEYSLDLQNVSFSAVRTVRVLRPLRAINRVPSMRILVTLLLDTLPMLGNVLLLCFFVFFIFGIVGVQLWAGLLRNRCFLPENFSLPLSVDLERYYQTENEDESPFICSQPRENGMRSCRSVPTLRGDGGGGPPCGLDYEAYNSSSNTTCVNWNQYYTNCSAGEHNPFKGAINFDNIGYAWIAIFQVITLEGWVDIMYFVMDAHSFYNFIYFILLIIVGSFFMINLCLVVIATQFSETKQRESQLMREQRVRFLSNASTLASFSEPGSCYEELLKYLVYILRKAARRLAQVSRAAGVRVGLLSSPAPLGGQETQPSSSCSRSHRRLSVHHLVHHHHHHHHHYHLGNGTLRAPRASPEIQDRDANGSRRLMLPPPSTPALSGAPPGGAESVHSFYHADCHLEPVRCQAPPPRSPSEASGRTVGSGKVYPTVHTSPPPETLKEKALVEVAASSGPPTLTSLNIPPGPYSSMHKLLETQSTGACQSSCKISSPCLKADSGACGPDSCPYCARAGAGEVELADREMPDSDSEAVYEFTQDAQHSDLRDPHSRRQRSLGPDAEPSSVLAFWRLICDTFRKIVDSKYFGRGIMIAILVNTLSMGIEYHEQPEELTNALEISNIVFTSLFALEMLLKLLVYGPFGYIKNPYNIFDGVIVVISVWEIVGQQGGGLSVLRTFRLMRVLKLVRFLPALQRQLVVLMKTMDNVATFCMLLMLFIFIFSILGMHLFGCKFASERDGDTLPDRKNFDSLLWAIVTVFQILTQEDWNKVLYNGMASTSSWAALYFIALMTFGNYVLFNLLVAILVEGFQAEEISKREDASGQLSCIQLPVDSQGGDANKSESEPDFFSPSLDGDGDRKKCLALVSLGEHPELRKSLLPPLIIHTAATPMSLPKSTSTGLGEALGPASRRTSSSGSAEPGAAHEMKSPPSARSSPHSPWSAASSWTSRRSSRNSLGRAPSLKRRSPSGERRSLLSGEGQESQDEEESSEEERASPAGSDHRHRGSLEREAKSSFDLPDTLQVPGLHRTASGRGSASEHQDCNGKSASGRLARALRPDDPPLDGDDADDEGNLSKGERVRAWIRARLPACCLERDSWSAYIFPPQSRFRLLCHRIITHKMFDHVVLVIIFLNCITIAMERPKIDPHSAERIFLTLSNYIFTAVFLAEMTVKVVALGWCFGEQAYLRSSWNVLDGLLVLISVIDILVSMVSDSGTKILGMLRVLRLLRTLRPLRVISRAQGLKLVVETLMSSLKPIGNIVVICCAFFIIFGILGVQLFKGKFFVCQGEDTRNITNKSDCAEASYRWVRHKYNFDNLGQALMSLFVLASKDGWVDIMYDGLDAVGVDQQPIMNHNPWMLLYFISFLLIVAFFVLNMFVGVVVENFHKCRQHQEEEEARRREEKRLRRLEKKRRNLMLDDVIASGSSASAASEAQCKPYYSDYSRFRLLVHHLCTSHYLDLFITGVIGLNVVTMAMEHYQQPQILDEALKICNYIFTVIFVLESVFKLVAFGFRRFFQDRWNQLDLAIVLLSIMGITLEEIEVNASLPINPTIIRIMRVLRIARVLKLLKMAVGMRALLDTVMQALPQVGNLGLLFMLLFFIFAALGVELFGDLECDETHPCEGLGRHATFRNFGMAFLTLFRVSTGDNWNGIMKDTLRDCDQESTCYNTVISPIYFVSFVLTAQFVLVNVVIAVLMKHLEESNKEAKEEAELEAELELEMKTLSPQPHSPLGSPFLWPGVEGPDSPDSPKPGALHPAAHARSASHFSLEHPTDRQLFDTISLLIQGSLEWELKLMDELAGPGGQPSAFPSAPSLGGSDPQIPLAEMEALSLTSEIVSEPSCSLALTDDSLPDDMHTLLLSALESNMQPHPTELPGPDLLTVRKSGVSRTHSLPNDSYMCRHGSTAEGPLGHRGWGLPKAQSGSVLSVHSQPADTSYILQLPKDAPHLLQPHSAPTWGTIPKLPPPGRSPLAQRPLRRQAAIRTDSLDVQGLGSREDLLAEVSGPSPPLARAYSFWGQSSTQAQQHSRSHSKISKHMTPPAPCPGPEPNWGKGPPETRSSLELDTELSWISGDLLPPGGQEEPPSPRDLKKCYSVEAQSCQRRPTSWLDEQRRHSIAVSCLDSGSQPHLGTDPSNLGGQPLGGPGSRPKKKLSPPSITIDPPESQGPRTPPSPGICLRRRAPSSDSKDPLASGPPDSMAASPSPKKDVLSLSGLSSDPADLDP
human α1H T-type channels, sequence (O95180 whole entry, the tested form may be a part): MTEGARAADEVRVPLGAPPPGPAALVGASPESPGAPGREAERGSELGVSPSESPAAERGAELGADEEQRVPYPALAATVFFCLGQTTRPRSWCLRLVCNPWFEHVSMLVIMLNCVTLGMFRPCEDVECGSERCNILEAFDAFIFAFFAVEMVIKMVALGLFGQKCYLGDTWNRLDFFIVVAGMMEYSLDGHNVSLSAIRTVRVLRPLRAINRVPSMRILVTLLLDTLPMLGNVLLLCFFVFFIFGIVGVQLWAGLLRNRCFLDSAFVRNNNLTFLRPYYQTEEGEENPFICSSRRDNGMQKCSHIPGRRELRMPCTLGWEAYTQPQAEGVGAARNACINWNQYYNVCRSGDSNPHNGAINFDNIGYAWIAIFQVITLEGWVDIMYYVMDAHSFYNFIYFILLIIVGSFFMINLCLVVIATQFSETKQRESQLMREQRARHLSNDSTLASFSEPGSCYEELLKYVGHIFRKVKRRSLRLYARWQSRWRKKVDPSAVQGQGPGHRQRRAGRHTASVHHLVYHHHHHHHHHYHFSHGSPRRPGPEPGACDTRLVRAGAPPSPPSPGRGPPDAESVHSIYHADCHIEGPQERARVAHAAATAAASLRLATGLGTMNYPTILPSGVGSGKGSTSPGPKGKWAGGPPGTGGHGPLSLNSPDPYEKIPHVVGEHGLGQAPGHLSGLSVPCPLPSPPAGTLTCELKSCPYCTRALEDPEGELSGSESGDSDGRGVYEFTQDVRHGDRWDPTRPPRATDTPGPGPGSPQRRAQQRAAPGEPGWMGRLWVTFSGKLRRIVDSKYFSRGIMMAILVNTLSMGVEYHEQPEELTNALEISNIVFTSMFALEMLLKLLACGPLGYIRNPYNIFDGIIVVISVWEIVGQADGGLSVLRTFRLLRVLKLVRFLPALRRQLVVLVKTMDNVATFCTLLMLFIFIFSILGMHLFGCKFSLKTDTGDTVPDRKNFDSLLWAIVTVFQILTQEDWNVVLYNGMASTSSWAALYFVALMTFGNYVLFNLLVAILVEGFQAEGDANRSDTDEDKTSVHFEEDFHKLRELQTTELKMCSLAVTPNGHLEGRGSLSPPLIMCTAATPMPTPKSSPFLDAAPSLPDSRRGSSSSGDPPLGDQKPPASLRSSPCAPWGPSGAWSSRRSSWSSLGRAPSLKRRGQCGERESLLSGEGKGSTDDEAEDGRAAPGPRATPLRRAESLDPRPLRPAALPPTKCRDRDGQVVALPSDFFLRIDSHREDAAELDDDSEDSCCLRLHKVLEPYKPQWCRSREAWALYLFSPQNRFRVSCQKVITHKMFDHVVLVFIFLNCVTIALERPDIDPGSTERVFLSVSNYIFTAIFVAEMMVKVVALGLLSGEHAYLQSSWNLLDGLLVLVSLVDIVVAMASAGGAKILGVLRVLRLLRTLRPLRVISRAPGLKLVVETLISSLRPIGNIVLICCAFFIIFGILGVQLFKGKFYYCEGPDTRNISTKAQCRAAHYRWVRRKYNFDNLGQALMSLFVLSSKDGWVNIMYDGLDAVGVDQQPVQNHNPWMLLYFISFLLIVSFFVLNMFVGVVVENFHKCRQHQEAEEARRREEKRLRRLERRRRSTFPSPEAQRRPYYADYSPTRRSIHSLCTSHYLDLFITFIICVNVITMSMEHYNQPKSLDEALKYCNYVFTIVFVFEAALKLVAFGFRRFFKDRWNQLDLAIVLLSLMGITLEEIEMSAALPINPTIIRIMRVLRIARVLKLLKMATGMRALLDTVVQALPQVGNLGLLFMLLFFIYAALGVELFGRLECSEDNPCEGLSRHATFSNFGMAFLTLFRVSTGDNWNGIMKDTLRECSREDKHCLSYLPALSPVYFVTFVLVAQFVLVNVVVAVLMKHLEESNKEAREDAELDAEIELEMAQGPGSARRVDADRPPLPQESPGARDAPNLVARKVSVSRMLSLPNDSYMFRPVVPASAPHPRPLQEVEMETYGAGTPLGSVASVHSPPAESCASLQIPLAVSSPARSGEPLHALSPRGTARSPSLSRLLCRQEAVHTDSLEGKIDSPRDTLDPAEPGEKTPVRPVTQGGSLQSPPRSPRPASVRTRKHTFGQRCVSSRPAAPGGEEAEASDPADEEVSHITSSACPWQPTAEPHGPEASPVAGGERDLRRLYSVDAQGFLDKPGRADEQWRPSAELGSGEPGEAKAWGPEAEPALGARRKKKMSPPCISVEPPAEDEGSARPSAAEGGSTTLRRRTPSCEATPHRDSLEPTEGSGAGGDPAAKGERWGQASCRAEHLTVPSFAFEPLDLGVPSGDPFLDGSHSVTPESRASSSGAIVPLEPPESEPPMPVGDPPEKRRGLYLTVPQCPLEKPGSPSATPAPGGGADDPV

One may read the IC50 as the concentration at which inhibition is half-maximal. `CC1(S(=O)(=O)c2cccc(C(F)(F)F)c2)CCC(NC(=O)c2cc(C(F)(F)F)ccn2)CC1` (stereo not drawn) [Compound 21, N-(4-methyl-4-(3-(trifluoromethyl)phenylsulfonyl)cyclohexyl)-4-(trifluoromethyl)picolinamide]: the IC50 in assay [1] is 4020 nM; in assay [2], 6560 nM; in assay [3] it was 200 nM.

Consider `COc1cc(F)cc(C(=O)NC2CCC(C)(S(=O)(=O)c3cccc(C(F)(F)F)c3)CC2)c1` (stereo not drawn) [Compound 20, 3-fluoro-5-methoxy-N-(4-methyl-4-(3-(trifluoromethyl)phenylsulfonyl)cyclohexyl)benzamide], for which the results for the IC50 in assay [1], in assay [2] and in assay [3] were 1380 nM, 1970 nM and 70 nM, respectively.

With `CN(C(=O)c1ccc(C(F)(F)F)cc1S(C)(=O)=O)[C@H]1CC[C@@](F)(S(=O)(=O)c2cc(F)cc(C(F)(F)F)c2)CC1` [Compound 336, N-((1S,4S)-4-fluoro-4-(3-fluoro-5-(trifluoromethyl)phenylsulfonyl)cyclohexyl)-N-methyl-2-(methylsulfonyl)-4-(trifluoromethyl)benzamide], the IC50 in assay [1] was found to be 1350 nM; in assay [2] it was 690 nM; in assay [3] it was 1060 nM.

Turning to `O=C(N[C@H]1CC[C@H](S(=O)(=O)c2cccc(C(F)(F)F)c2)CC1)c1cncc(C(F)(F)F)c1` [Compound 190, 5-(trifluoromethyl)-N-((1R,4R)-4-(3-(trifluoromethyl)phenylsulfonyl)cyclohexyl)nicotinamide], the IC50 in assay [1] was found to be 2530 nM; in assay [2], 5560 nM; in assay [3], 600 nM.

As to `O=C(CN[C@H]1CC[C@H](S(=O)(=O)c2cccc(C(F)(F)F)c2)CC1)NC1CCCCC1` [Compound 76, N-cyclohexyl-2-((1R,4R)-4-(3-(trifluoromethyl)phenylsulfonyl)cyclohexylamino)acetamide], the IC50 in assay [1] amounted to 510 nM; in assay [2], 1030 nM; in assay [3], 590 nM.

With `CC1(NC(=O)CN[C@H]2C[C@H](CS(=O)(=O)c3cccc(C(F)(F)F)c3)C2)CCC1` [Compound 351, N-(1-methylcyclobutyl)-2-((1R,3R)-3-((3-(trifluoromethyl)phenylsulfonyl)methyl)cyclobutylamino)acetamide], the IC50 in assay [1] is 7430 nM; in assay [2], above 10000 nM; in assay [3], 2770 nM.

With `CC1(NC(=O)CN[C@H]2CC[C@@](F)(S(=O)(=O)c3cccc(C(F)(F)F)c3)CC2)CCC1` [Compound 89, 2-((1S,4S)-4-fluoro-4-(3-(trifluoromethyl)phenylsulfonyl)cyclohexylamino)-N-(1-methylcyclobutyl)acetamide], the IC50 in assay [1] was 990 nM; in assay [2], 1710 nM; in assay [3], 120 nM.

As to `CS(=O)(=O)c1cc(C(F)(F)F)cnc1C(=O)NC[C@H]1C[C@H](S(=O)(=O)c2cccc(C(F)(F)F)c2)C1` [Compound 364, 3-(methylsulfonyl)-5-(trifluoromethyl)-N-(((1R,3R)-3-(3-(trifluoromethyl)phenylsulfonyl)cyclobutyl)methyl)picolinamide], the values for the IC50 in assay [1], in assay [2] and in assay [3] were 210 nM, 520 nM and 1400 nM, respectively.

For the molecule `CN(C(=O)c1ccc(F)c(Cl)c1)[C@H]1CC[C@@](F)(S(=O)(=O)c2cc(F)cc(C(F)(F)F)c2)CC1` [Compound 335, 3-chloro-4-fluoro-N-((1S,4S)-4-fluoro-4-(3-fluoro-5-(trifluoromethyl)phenylsulfonyl)cyclohexyl)-N-methylbenzamide], the values for the IC50 in assay [1], in assay [2] and in assay [3] were 4710 nM, above 10000 nM and 520 nM, respectively.

On to `COc1cc(Cl)ccc1C(=O)N[C@H]1CC[C@@H](S(=O)(=O)c2cccc(C(F)(F)F)c2)CC1` [Compound 134, 4-chloro-2-methoxy-N-((1S,4S)-4-(3-(trifluoromethyl)phenylsulfonyl)cyclohexyl)benzamide], for which the IC50 in assay [1] worked out at 1820 nM; in assay [2] it was 2630 nM; in assay [3], 500 nM.

`Cn1nc(C(F)(F)F)cc1C(=O)N[C@H]1CC[C@H](CS(=O)(=O)c2cccc(C(F)(F)F)c2)CC1` [Compound 102, 1-methyl-3-(trifluoromethyl)-N-((1R,4R)-4-((3-(trifluoromethyl)phenylsulfonyl)methyl)cyclohexyl)-1H-pyrazole-5-carboxamide]: the IC50 in assay [1] is above 10000 nM; in assay [2], above 10000 nM; in assay [3], 630 nM.

In the case of “4-fluoro-N-(4-methyl-4-(3- (trifluoromethyl)phenylsulfonyl) cyclohexyl)-3-(trifluoromethyl) benzamide [Compound 4]”, the figures for the IC50 in assay [1], in assay [2] and in assay [3] were 6740 nM, 8540 nM and 140 nM, respectively.

`CC1(NC(=O)CN[C@H]2CC[C@](F)(S(=O)(=O)c3cccc(C(F)(F)F)c3)CC2)CCC1` [Compound 91, 2-((1R,4R)-4-fluoro-4-(3-(trifluoromethyl)phenylsulfonyl)cyclohexylamino)-N-(1-methylcyclobutyl)acetamide]: the figures for the IC50 in assay [1], in assay [2] and in assay [3] were 940 nM, 2450 nM and 410 nM, respectively.

On to `COc1cc(Cl)ccc1C(=O)N[C@H]1CC[C@H](S(=O)(=O)c2cccc(C(F)(F)F)c2)CC1` [Compound 127, 4-chloro-2-methoxy-N-((1R,4R)-4-(3-(trifluoromethyl)phenylsulfonyl)cyclohexyl)benzamide], for which the IC50 in assay [1] is 1560 nM; in assay [2], 1140 nM; in assay [3] it was 1290 nM.

Take `O=C(Nc1cncc(Cl)c1)[C@H]1C[C@H](S(=O)(=O)c2cccc(C(F)(F)F)c2)C1` [Compound 419, (1R,3R)-N-(5-chloropyridin-3-yl)-3-(3-(trifluoromethyl)phenylsulfonyl)cyclobutane carboxamide]: the figures for the IC50 in assay [1], in assay [2] and in assay [3] were above 10000 nM, above 10000 nM and 3430 nM, respectively.

For `O=C(CNC1CCCCC1)N[C@H]1CC[C@H](CS(=O)(=O)c2cccc(C(F)(F)F)c2)CC1` [Compound 162, 2-(cyclohexylamino)-N-((1R,4R)-4-((3-(trifluoromethyl)phenylsulfonyl)methyl)cyclohexyl)acetamide], the values for the IC50 in assay [1], in assay [2] and in assay [3] were above 10000 nM, above 10000 nM and 540 nM, respectively.

As to `O=C(N[C@H]1CC[C@@H](S(=O)(=O)c2cccc(C(F)(F)F)c2)CC1)c1ccc(Cl)c(OC(F)(F)F)c1` [Compound 133, 4-chloro-3-(trifluoromethoxy)-N-((1S,4S)-4-(3-(trifluoromethyl)phenylsulfonyl)cyclohexyl)benzamide], the IC50 came out at 400 nM in assay [1], 350 nM in assay [2] and 210 nM in assay [3].

Consider `CC1(CNCC(=O)NC(C)(C)C)CCC(F)(S(=O)(=O)c2cccc(C(F)(F)F)c2)CC1` (stereo not drawn) [Compound 159, N-tert-butyl-2-((4-fluoro-1-methyl-4-(3-(trifluoromethyl)phenylsulfonyl)cyclohexyl)methylamino)acetamide], for which the half-maximal inhibitory concentration (IC50) in assay [1] was above 10000 nM; in assay [2] it was above 10000 nM; in assay [3], 460 nM.

In the case of `O=C(N[C@H]1CC[C@@H](CS(=O)(=O)c2cccc(C(F)(F)F)c2)CC1)c1ccc(F)c(Cl)c1` [Compound 142, 3-chloro-4-fluoro-N-((1S,4S)-4-((3-(trifluoromethyl)phenylsulfonyl)methyl)cyclohexyl)benzamide], the IC50 came to 5880 nM in assay [1], 8230 nM in assay [2] and 380 nM in assay [3].

As for `O=C(NC[C@H]1C[C@H](S(=O)(=O)c2cccc(C(F)(F)F)c2)C1)c1ccc(F)c(C(F)(F)F)c1` [Compound 354, 4-fluoro-3-(trifluoromethyl)-N-(((1R,3R)-3-(3-(trifluoromethyl)phenylsulfonyl)cyclobutyl)methyl)benzamide], the IC50 in assay [1] was 7060 nM; in assay [2], above 10000 nM; in assay [3], 140 nM.

`Cc1cc(NC(=O)CN[C@H]2CC[C@@H](S(=O)(=O)c3cccc(C(F)(F)F)c3)CC2)on1` [Compound 54, N-(3-methylisoxazol-5-yl)-2-((1S,4S)-4-(3-(trifluoromethyl)phenylsulfonyl)cyclohexylamino)acetamide]: the IC50 in assay [1] is 7290 nM; in assay [2], above 10000 nM; in assay [3], 4630 nM.

For “3-chloro-5-fluoro-N-((1S,4S)-4-((3- (trifluoromethyl)phenylsulfonyl) methyl)cyclohexyl)benzamide [Compound 137]”, the IC50 in assay [1] was 330 nM; in assay [2], 430 nM; in assay [3], 320 nM.

On to `Cn1nc(C(F)(F)F)cc1C(=O)NC[C@H]1C[C@@H](S(=O)(=O)c2cccc(C(F)(F)F)c2)C1` [Compound 378, 1-methyl-3-(trifluoromethyl)-N-(((1S,3S)-3-(3-(trifluoromethyl)phenylsulfonyl)cyclobutyl)methyl)-1H-pyrazole-5-carboxamide], for which the IC50 in assay [1] was 1630 nM; in assay [2], 2790 nM; in assay [3] it was 1130 nM.

As to `O=C(N[C@H]1CC[C@@](F)(S(=O)(=O)c2cccc(OC(F)(F)F)c2)CC1)c1ccc(F)c(Cl)c1` [Compound 256, 3-chloro-4-fluoro-N-((1S,4S)-4-fluoro-4-(3-(trifluoromethoxy)phenylsulfonyl)cyclohexyl)benzamide], the 50% inhibitory concentration (IC50) amounted to 3320 nM in assay [1], 2010 nM in assay [2] and 150 nM in assay [3].
